Reference: patent US4663326A, “Pyrazolo[4,3-d]pyrimidine-5,7-(4H,6H)dione or -5-thione-7-one analogs” (Warner-Lambert Company, priority 1985, dated 1987)

What was measured:
Type 3 Phosphodiesterase = test: PDE inhibition, Type 3 phosphodiesterase, smooth muscle (bovine coronary arteries); assay type: biochemical; settings: 1 × 10^-5 M
Text: The method of Thompson, et al (Thompson, W. J., Terasaki, W. L., Epstein, P. M., Strada, S. J., Adv. Cyclic Nucleotide Res., 10:69-92, 1979), with minor modifications, was used to isolate phosphodiesterases from vascular smooth muscle. Bovine coronary arteries (right, anterior descending, and left circumflex arteries) from hearts obtained from a local slaughterhouse were used for these studies. Arteries from two hearts were used for each isolation. Hearts were kept on ice and the arteries were dissected within two hours after the animals were sacrificed. After removing all fat and connective tissue, the arteries were everted, cut into cubes with a single edge razor blade and homogenized with a Brinkman Polytron three times at a rheostat setting of 10.0 in four volumes of the PDE isolation buffer (10 mM Tris-HCl/pH 7.5, 2 mM MgCl2, and 1 mM dithiothreitol). The resulting homogenate was sonicated (30 sec/ml homogenate) and then centrifuged at 30,000×g for 20 minutes. This and all subsequent procedures were performed at 4° C. […]
Phosphodiesterase activity was measured as described previously (Weishaar, P. E., Quade, M., Boyd, D., Schenden, J., Mark, S. S., Kaplan, H. R., Drug Devel. Res., 3:517-534, 1983), in a reaction medium containing 40 mM Tris-HCl (pH 8.0), 5 mM MgCl and 4 mM 2-mercaptoethanol. […]

[1] = test system: pentobarbital-anesthetized dog; test: In vivo myocardial inotropic activity in anesthetized dog (CVAD); set-up: species or system dog (adult mongrel); settings: for Percent Change Heart Rate / Percent Change Myocardial Contractility / Percent Change Blood Pressure (second value) / Percent Change Blood Pressure (first value): intravenous; for Percent Change Blood Pressure (second value): value after the slash; for Percent Change Blood Pressure (first value): value before the slash
Procedure: This test procedure is described in the following paragraphs.
This screen consists of determining the effects of increasing intravenous doses of compound on mycardial contractility (dP/dt max of left ventricular blood pressure), heart rate, and aortic blood pressure of the pentobarbital-anesthetized dog.
Adult mongrel dogs of either sex are anesthetized with pentobarbital, 35 mg/kg, IV, and are subsequently maintained under anesthesia with a continuous infusion of pentobarbital, 3.5 mg/kg/hour. The trachea is intubated but the animals are permitted to breathe spontaneously. A cannula is inserted into the femoral vein for administrating test agents. A Millar catheter tip pressure transducer or a fluid filled catheter is inserted into the ascending aorta via the femoral artery for measuring aortic blood pressure. A Millar catheter tip pressure transducer is passed into the left ventricle via the left carotid artery for measuring left ventricular blood pressure. Needle electrodes are placed subcutaneously for recording a lead II electrocardiogram (ECG).
Left ventricular and aortic blood pressures are recorded on a strip chart recorder. Heart rate, using a biotachometer triggered from the R wave of the ECG, and the first derivative of left ventricular blood pressure (dP/dt), obtained with a differentiator amplifier coupled to the corresponding pressure amplifier, are also recorded. A period of at least 30 minutes is utilized to obtain control data prior to administration of test compound.
Depending on solubility, the compounds are dissolved in 0.9% saline solution or in dilute HCl or NaOH (0.1 to 1.0N) and are diluted to volume with normal saline. Ethanol or dimethylacetamide can be used as solvents if adequate dilutions can be made. Appropriate vehicle controls are administered when needed.
Each dose of the test compound is administered in a volume of […] over a period of one minute.

[2] = intravenously at about 0.01 to 0.31 mg/kg

SMILES	% Inhibition of 3H-cAMP Hydrolysis, Type 3 Phosphodiesterase (Type 3 Phosphodiesterase)	Percent Change Heart Rate ([1]; 0.10 mg/kg)	Percent Change Myocardial Contractility ([1]; 0.10 mg/kg)	Percent Change Blood Pressure (second value) ([1]; 0.10 mg/kg)	Percent Change Blood Pressure (first value) ([1]; 0.10 mg/kg)	Percent Change Heart Rate ([1]; 1.00 mg/kg)	Percent Change Myocardial Contractility ([1]; 1.00 mg/kg)	Percent Change Blood Pressure (second value) ([1]; 1.00 mg/kg)	Percent Change Blood Pressure (first value) ([1]; 1.00 mg/kg)	Percent Change Heart Rate ([1]; 3.10 mg/kg)	Percent Change Myocardial Contractility ([1]; 3.10 mg/kg)	Percent Change Blood Pressure (second value) ([1]; 3.10 mg/kg)	Percent Change Blood Pressure (first value) ([1]; 3.10 mg/kg)	also measured
CCn1nc(C)c2[nH]c(=S)[nH]c(=O)c21 [Example 2, 1-Ethyl-1,4,5,6-tetrahydro-3-methyl-pyrazolo[4,3-d]pyrimidine-5-thione-7-on]	B (36-55% inhibition at 1 × 10^-5 M)	3%	5%	-1%	-1%	-1%	13%	-4%	-2%	5%	45%	-9%	-6%	Percent Change Heart Rate ([1]; 0.30 mg/kg): 2%; Percent Change Myocardial Contractility ([1]; 0.30 mg/kg): 8%; Percent Change Blood Pressure (second value) ([1]; 0.30 mg/kg): -4%; Percent Change Blood Pressure (first value) ([1]; 0.30 mg/kg): -3%
Cc1nn(C)c2c(=O)[nH]c(=O)[nH]c12 [Example 1, 1,3-Dimethylpyrazolo[4,3-d]pyrimidine-5,7-(4H, 6H)dione]	N (0-20% inhibition at 1 × 10^-5 M)	1%	5%	1%	1%	5%	41%	-2%	0%	15%	90%	-4%	-2%	Percent Change Heart Rate ([1]; 0.31 mg/kg): 1%; Percent Change Myocardial Contractility ([1]; 0.31 mg/kg): 13%; Percent Change Blood Pressure (second value) ([1]; 0.31 mg/kg): -1%; Percent Change Blood Pressure (first value) ([1]; 0.31 mg/kg): 1%; blood pressure (in words) [1, 2]: moderate reduction in blood pressure; cardiac contractility (in words) [1, 2]: dose related significant increases in cardiac contractility; heart rate (in words) [1, 2]: only low or minimal changes in heart rate
